Key:
[1] = test system: rat intestinal epithelial cells; settings: cited from earlier work
[2] = test system: PnsrR-GFP reporter construct; assay: Nitric oxide-inducible GFP reporter assay, fluorescence plate reader; type: cell-based, E. coli Nissle; settings: NO donor DETA-NO, two-fold decreased across a range of concentrations; relative florescence units; FIG. 28
[3] = test system: dipeptidyl peptidase IV (DPP-IV); settings: cited from earlier work; for resistance to DPPIV mediated degradation / cleavage: short description of a known GLP-1R agonist in Table 10, in words
[4] = test system: Ptet-GFP reporter construct; assay: ATC-inducible GFP reporter assay, fluorescence plate reader; type: cell-based, E. coli Nissle; settings: two-fold decreased inducer across a range of concentrations; relative florescence units; FIG. 28

GLP-1(1-37): full-length form of GLP-1, SEQ ID NO: 73 (HDEFERHAEGTFTSDVSSYLEGQAAKEFIAWLVKGRG)
effect on intestinal epithelial cells [1]: stimulate rat intestinal epithelial cells to become glucose-responsive insulin-secreting cells

NCCN(CCN)/[N+]([O-])=N/O [NO, diethylenetriamine-nitric oxide adduct]
induction of GFP expression in PnsrR-GFP reporter construct [2]: able to induce the expression of GFP

Dulaglutide
resistance to DPPIV mediated degradation / cleavage [3]: protection from DPPIV

Taspoglutide
resistance to DPPIV mediated degradation / cleavage [3]: avoid degradation by DPPIV,

anhydrous tetracycline [ATC]
induction of GFP expression in Ptet-GFP reporter construct [4]: able to induce the expression of GFP

GLP-1(7-37): circulating active form of GLP-1, SEQ ID NO: 75
biological half-life in blood ([3]; blood): a few minutes

GLP-1: glucagon-like peptide 1, produced by intestinal cells
stability ([3]; rapid degradation catalyzed by DPP-IV): 3 to 5 min

From US11291693B2, “Bacteria engineered to treat metabolic diseases” (Synlogic Operating Company, Inc., priority 2015, dated 2022)
